Key:
[1] = biological target: T1, rat prostate androgen receptor (Rattus norvegicus, UniProt P15207); conditions: 1 nM ^3 H-mibolerone, 20 hours at 0° C., rat ventral prostate cytosol; read-out: Inhibitory activity on mibolerone specific binding [IC50 (M)]
T1 sequence (P15207 1-902): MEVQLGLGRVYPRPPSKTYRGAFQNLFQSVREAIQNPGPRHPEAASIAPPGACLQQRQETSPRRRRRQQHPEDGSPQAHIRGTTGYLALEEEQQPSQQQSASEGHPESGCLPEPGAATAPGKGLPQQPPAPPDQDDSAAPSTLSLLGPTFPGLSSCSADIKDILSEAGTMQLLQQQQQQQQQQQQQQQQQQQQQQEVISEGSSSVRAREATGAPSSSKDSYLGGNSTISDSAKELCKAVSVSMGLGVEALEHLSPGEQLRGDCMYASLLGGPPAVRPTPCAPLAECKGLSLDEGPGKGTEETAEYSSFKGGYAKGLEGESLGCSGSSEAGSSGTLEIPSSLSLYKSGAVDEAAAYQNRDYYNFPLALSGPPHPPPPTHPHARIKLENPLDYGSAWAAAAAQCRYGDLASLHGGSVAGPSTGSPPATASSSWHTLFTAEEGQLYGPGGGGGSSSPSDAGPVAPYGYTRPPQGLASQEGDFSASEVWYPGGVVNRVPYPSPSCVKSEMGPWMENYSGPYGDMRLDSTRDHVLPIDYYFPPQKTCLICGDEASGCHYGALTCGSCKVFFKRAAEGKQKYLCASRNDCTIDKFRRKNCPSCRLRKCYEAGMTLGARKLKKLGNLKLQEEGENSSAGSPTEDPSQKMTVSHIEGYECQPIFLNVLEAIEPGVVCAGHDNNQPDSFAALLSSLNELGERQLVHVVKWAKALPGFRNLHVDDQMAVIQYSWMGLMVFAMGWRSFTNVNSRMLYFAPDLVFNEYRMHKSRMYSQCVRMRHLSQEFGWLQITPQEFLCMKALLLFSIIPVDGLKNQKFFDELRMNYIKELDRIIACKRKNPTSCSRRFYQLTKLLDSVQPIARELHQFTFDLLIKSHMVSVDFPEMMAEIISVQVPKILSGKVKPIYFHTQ
Experimental: Assay of inhibitory activity to binding of ^3 H-mibolerone on rat prostate androgen receptor
(1) Preparation of Cytosol from Rat Prostate
The rats were killed 24 hours after castration, and the ventral prostate glands were removed, and was gently homogenized, with three volume of buffer solution A (1.5 mM EDTA, 2 mM dithiothreitol, 10 mM molybdate sodium, 10% by volume of glycerol, 10 mM NaF, 25 mM phosphate sodium, pH 7.2) on ice-water bath, in Polytron, and Potter type homogenizer. The obtained homogenate was filtrated through double gauze, and centrifuged at 105,000×g for 60 minutes at 4° C., and the supernatant was obtained as cytoplasm fraction.
(2) Measurement of Specific binding of ^3 H-mibolerone to Prostate Cytoplasm Androgen Receptor
To the cytoplasm fraction obtained in (1) was added ^3 H-mibolerone (87.0 Ci/millimol), so that a final concentration is adjusted to 1 nM, and at the same time, in order to block binding of ^3 H-mibolerone to progestin receptor, triamsinolone acetonide was added to a final concentration of 5 μM, and the final volume was adjusted to 0.4 ml with buffer solution A, and the reaction mixture was incubated for 20 hours at 0° C. After incubation, 0.5 ml of 60% hydroxylapatite slurry (washed and equilibrate with a buffer solution B: 10 mM NaH2 PO4, 20 mM tris-hydrochloric acid, pH 7.2) was added, and incubated for 10 minutes at 0° C., the solution was transferred onto a glass fiber filter, and washed five times with 5 ml portions of buffer solution B containing 0.1% (weight/volume) of Triton X-100, to remove free ^3 H-mibolerone. This glass fiber was transferred into vial, and 10 ml of aquasol- 2 was added, and the radioactivity was measured, and the total binding amount of ^3 H-mibolerone on prostate cytoplasm androgen receptor was determined.
The nonspecific binding amount was determined similarly by adding an unlabeled 5α-DHT in the reaction solution to a final concentration of 1 μM. The difference between the total binding amount and nonspecific binding amount was determined as the specific binding amount on the androgen receptor.
(3) Inhibitory Activity of Sample Compounds on ^3 H-mibolerone Specific Binding
The various concentrations of compounds obtained in the experiments were added simultaneously with ^3 H-mibolerone to incubate same as in (2), and the specific binding amount of ^3 H-mibolerone on androgen receptor was determined. Comparing this value with the value obtained in (2), the IC50 value of inhibitory activity of the compounds on ^3 H-mibolerone specific binding was determined.

[2] = In vitro drug metabolism in rat liver extract; type: in vitro ADME, male Wistar rats; conditions: pH 7.4, 37° C.; for remaining at 5 min / remaining at 0.25 h / remaining at 0.5 h / remaining at 1 h: rat liver extract; for remaining at 5 min: read-out: Residual amount of test compound, 5 min.; for remaining at 0.25 h: 15 min., read-out: Residual amount of test compound, 15 min.; for remaining at 0.5 h: 30 min., read-out: Residual amount of test compound, 30 min.; for remaining at 1 h: 60 min., read-out: Residual amount of test compound, 60 min.; for half-life: half-life in the rat liver extract, read-out: Half-time period
Experimental: 2. In vitro drug metabolism in rat liver extract
The resistance of the compound against metabolic degradation by rat liver extract was investigated.
The male Wistar rats (weighing about 200 g) were used after fasting for 24 hours. The rat was sacrificed under ether anesthesia, and the livers were removed and were placed onto the ice.
The liver was minced with scissors under ice-cooling, and homogenized in the presence of 4 volumes of 1.15% KCl-0.1M phosphate buffer (pH 7.4) with a Potter type homogenizer. The homogenates were centrifuged at 9,000×g for 10 minutes at 4° C., and the supernatant filtered through the cheese-cloth was used as an enzyme solution.
The constitution of the reaction mixture was shown in below. 0.1M Buffer was sufficiently bubbled in 95% O2 -5% CO2 gas before use.
Glucose 6-phosphate (60.8 mg.ml)
Nicotineamide (9.16 mg/ml)
The tested samples were dissolved in dimethyl sulfoxide. MgCl2 ·6H2 O was dissolved in a distilled water, and all other reagents were dissolved in 0.1M phosphate buffer. The reaction was initiated by adding enzyme solution, and shaked at 37° C. with 120 cycles/minutes in Spitz test tubes with stoppers. The reaction was stopped by adding methanol after 5, 15, 30 and 60 minutes.
After termination of the reaction, samples were mixed by using of a Vortex mixer, and centrifuged at 3,000 rpm for 10 minutes. The supernatant was applied to a high-performance liquid chromatography of which conditons are shown in below. A residual amount of the mother compound was determined at certain time intervals, whererby half-life of the compound in the rat liver extract was calculated.
Column: Chemcosorb 5C18-300 Å 4.6 mm diameter and 150 mm length
Colume temperature: 50° C.

[3] = Oral absorption (blood level after oral administration); type: in vivo; conditions: Wistar male rat, 30 mg/ml/kg, serum
Experimental: After administration, the rat is fixed on a plate with nails and strings. […] The serum was obtained by centrifuging with a blood serum separating tube ([…] tube). To 100 μl of the serum thus obtained was added 300 μl of methanol, and the mixture was centrifuged. Next, 50 μl of the supernatant was applied to a high-performance liquid chromatography, and the blood level of the compound was measured. Conditions of the high-performance liquid chromatography are as follows: Column: […] 300, 4.6 mm diameter and 150 mm length Eluent: 48% CH3 CN-0.01% TFA Flow rate: 1 ml/minute Detection: UV 290 nm Sensitivity: 0.01 AUFS Colume temperature: 50° C. As Comparative Example 10, the compound expressed in the following chemical formula disclosed in U.S. Pat.

IC50 [1] [M] | remaining at 5 min [2] [%] | remaining at 0.25 h [2] [%] | remaining at 0.5 h [2] [%] | remaining at 1 h [2] [%] | half-life [2] [h] | concentration at 4 h ([3]; 30 mg/kg) [ng/mL] | concentration at 8 h ([3]; 30 mg/kg) [ng/mL] | Blood Level, 20 minutes ([3]; 20 minutes) [ng/mL] | Blood Level, 1 hours ([3]; 1 hour) [ng/mL] | Blood Level, 2 hours ([3]; 2 hours) [ng/mL] | concentration at 20 min ([3]; 30 mg/kg, 20 minutes) [ng/mL] | concentration at 1 h ([3]; 30 mg/kg, 1 hour) [ng/mL] | concentration at 2 h ([3]; 30 mg/kg, 2 hours) [ng/mL] | Structure (SMILES)
1.2e-08 | 77.6 | 57.1 | 62 | 55.2 | > 1 | – | – | – | – | – | – | – | – | COc1cccc(Cc2ccc(-c3cnn4c(O)ncnc34)cc2C)c1 [Example 10, 4-hydroxy-8-[4-(3-methoxyphenylmethyl)-3-methyl]phenylpyrazolo[1,5-a]-1,3,5-triazine]
6.4e-07 | 82.9 | 77.8 | 82.5 | 55.5 | > 1 | – | – | – | – | – | – | – | – | Cc1ccccc1Cc1ccc(-c2cnn3c(O)ncnc23)cc1 [Example 14, 4-hydroxy-8-[4-(2-methylphenylmethyl)phenyl]pyrazolo[1,5-a]-1,3,5-triazine]
2.8e-07 | 81.3 | 86.1 | 84.2 | 80.2 | > 1 | – | – | – | – | – | – | – | – | Oc1ccnc2c(-c3ccc(Cc4ccccc4)cc3)cnn12 [Example 2, 3-(4-benzylphenyl)-7-hydroxypyrazolo[1,5-a]pyrimidine]
1.2e-07 | 88.5 | 74.3 | 66 | 53.4 | > 1 | – | – | – | – | – | – | – | – | COc1cccc(Cc2ccc(-c3cnn4c(O)ccnc34)cc2)c1 [Example 28, 7-hydroxy-3-[4-(3-methoxyphenylmethyl)phenyl]pyrazolo[1,5-a]pyrimidine]
2.3e-08 | 93 | 91.8 | 97.4 | 90.8 | > 1 | – | – | – | – | – | – | – | – | COc1cc(-c2cnn3c(O)ncnc23)ccc1Cc1cccc(C)c1 [Example 12]
– | – | – | – | – | – | 112 | 31 | 0 | 0 | 0 | – | – | – | CCc1ccccc1NS(=O)(=O)c1ccc(-c2cnn3c(O)ncnc23)cc1 [Comparative Example 10, reference compound]
2.8e-07 | 92.2 | 62.4 | 60.2 | 42.9 | 0.75 | 1420 | 731 | – | – | – | 1590 | 2690 | 1250 | Oc1ncnc2c(-c3ccc(Cc4ccccc4)cc3)cnn12 [Example 1, 8-(4-benzylphenyl)-4-hydroxypyrazolo[1,5-a]-1,3,5-triazine]
3e-08 | 93.7 | 89.9 | 82.7 | 83.8 | > 1 | – | – | – | – | – | – | – | – | Cc1cc(-c2cnn3c(O)ncnc23)ccc1Cc1ccccc1 [Example 5, 8-(4-benzyl-3-methyl)phenyl-4-hydroxypyrazolo[1,5-a]-1,3,5-triazine]
7.4e-08 | 56.9 | 44.6 | 49.9 | 38.2 | 0.5 | – | – | – | – | – | – | – | – | COc1cc(-c2cnn3c(O)ncnc23)ccc1Cc1ccccc1 [Example 4, 8-(4-benzyl-3-methoxy)phenyl-4-hydroxypyrazolo[1,5-a]-1,3,5-triazine]
